Measurements published in ChEMBL document CHEMBL1201862, “PubChem BioAssay data set” (2004).
Active and inactive are the calls of the source.

Legend:
[1] = target: T1, E3 ubiquitin-protein ligase XIAP (Homo sapiens, UniProt P98170); assay: Counter Screen using XIAP-Bir3 for Chemical Antagonists of Bir1/2 domains of IAP-family anti-apoptotic proteins. [Related pubchem assays (depositor defined):AID1018, AID1449, AID1514, AID1638, AID1749, AID1750, AID488957, AID488963]
[2] = target: T1, E3 ubiquitin-protein ligase XIAP; assay: XIAP antagonists, biochemical, IAP family, fluorescence polarization (AID 1018); format: functional
[3] = target: T2, Microphthalmia-associated transcription factor (Homo sapiens, UniProt O75030); assay: TRPM1 promoter luciferase signal decrease, dose response, MITF inhibitor project, cell-based, SK-MEL-5, cherry-picked, set 3 (AID 493073); format: functional
T2 sequence (O75030 whole entry): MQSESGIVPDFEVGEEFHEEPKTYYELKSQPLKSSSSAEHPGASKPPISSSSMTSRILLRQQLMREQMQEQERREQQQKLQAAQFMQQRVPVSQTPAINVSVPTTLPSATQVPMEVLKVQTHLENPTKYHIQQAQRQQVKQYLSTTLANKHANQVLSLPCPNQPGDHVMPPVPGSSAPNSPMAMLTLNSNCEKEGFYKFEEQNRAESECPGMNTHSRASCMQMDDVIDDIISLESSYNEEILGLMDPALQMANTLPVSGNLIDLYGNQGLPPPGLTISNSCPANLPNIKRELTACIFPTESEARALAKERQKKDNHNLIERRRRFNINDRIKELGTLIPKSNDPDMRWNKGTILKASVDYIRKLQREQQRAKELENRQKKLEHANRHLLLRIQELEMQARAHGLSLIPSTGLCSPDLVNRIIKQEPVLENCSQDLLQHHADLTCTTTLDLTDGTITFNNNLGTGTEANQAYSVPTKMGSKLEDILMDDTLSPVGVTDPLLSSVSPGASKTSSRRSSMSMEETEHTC

BJ [4] = assay: cytotoxicity toward BJ-TERT fibroblasts, dose response, cell-based, RAS-independent, luminescence (AID 1933); format: functional; settings: Homo sapiens
BJ [5] = assay: cells; format: functional, cell-based; settings: Homo sapiens
BJ [6] = assay: cytotoxicity toward BJ-TERT-LT-ST fibroblasts, dose response, cell-based, RAS-independent, luminescence (AID 1935); format: functional; settings: Homo sapiens;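 also: BJ fibroblasts immortalized with TERT plus LT and ST oncogenes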
[7] = cytotoxicity toward DRD oncogenic fibroblasts, dose response, cell-based, non-viral oncogenic, luminescence (AID 1934); format: functional; settings: Homo sapiens
BJ [8] = assay: cytotoxicity toward Ras-transformed BJeLR fibroblasts, dose response, cell-based, alamar blue fluorescence, cherrypicked samples (AID 2631); format: functional; settings: Homo sapiens;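 also: confirmatory dose-response assay in RAS-dependent BJ fibroblasts engineered with TERT, LT and ST, with cytotoxicity read by fluorescence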
[9] = target: 26S proteasome non-ATPase regulatory subunit 14 (Homo sapiens, UniProt O00487); assay: inhibition of proteasome subunit RPN11 – biochemical, fluorescence polarization, uHTS hits, confirmation (AID 602368); format: functional
[10] = target: 72 kDa type IV collagenase (Homo sapiens, UniProt P08253); assay: Dose Response validation of uHTS RPN11 inhibitor hits using a MMP-2 Fluorescence assay.; format: functional
Prothrombin = Prothrombin (Bos taurus, UniProt P00735); assay: thrombin inhibition, dose response, biochemical, fluorescence polarization, uHTS hits (AID 602369); format: functional
Cytochrome P450 2D6 = Cytochrome P450 2D6 (Homo sapiens, UniProt P10635);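 also: CYP2D6 member of a cytochrome P450 panel assay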
Cytochrome P450 1A2 = target: T3, Cytochrome P450 1A2 (Homo sapiens, UniProt P05177);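 also: PubChem cytochrome P450 panel assay, CYP1A2 panel member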
T3 sequence (P05177 whole entry): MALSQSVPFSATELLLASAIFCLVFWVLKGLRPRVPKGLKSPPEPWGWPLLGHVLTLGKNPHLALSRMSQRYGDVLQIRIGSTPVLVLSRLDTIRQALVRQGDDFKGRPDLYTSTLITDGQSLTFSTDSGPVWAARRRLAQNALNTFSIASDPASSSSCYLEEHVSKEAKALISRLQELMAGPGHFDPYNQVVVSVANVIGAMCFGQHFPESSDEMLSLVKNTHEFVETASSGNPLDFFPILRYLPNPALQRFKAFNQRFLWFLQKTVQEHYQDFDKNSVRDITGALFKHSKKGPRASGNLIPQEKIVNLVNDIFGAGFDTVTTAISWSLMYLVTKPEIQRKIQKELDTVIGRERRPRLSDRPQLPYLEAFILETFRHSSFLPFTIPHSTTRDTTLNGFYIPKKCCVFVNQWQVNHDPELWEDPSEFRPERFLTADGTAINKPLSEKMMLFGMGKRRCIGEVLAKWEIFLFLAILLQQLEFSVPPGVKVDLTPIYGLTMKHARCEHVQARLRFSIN

Cytochrome P450 3A4 = Cytochrome P450 3A4 (Homo sapiens, UniProt P08684);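 also: CYP3A4 tested as one member of a cytochrome P450 panel screen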
INS1 = assay: beta cell apoptosis inhibitors, cytokine rescue, dose response, luminescence, retest (AID 449756); format: functional, cell-based; settings: Rattus norvegicus;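 also: cell death triggered by IL-1 beta plus TNF-alpha plus IFN-gamma mixture; protective hits raise ATP signal compared with cytokine alone wells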
P388/ADR = assay: cells; format: functional; settings: Mus musculus
SN12K1 = assay: cells; format: functional; settings: Homo sapiens
P388 = assay: cells; format: functional; settings: Mus musculus
Coagulation factor XII = target: T4, Coagulation factor XII (Homo sapiens, UniProt P00748); format: functional;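 also: activated factor XIIa alpha cleaving a fluorogenic AMC peptide substrate; inhibitor potency from loss of enzyme activity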
T4 sequence (P00748 whole entry): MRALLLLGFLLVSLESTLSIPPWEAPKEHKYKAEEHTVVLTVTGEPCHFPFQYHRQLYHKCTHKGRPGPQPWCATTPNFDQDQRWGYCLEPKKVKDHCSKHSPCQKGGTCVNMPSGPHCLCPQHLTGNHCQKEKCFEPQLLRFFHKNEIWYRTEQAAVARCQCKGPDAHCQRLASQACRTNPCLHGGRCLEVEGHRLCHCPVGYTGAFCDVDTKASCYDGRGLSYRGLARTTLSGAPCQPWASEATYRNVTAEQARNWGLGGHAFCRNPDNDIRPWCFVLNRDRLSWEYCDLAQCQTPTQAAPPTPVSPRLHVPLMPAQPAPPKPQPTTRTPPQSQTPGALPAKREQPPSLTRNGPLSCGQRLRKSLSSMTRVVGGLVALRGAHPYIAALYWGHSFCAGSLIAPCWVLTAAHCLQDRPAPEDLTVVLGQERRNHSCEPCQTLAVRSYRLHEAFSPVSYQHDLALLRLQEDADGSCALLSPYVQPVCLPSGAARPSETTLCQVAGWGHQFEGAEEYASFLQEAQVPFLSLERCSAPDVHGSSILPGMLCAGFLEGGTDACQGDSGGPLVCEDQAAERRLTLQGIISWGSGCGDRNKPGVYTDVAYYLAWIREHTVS

[11] = target: DNA (cytosine-5)-methyltransferase 1 (Homo sapiens, UniProt P26358); assay: DNMT1 methyltransferase inhibitors, confirmation, biochemical, fluorescent molecular beacon (AID 602386); format: functional
Sequence of DNA (cytosine-5)-methyltransferase 1 (P26358 whole entry): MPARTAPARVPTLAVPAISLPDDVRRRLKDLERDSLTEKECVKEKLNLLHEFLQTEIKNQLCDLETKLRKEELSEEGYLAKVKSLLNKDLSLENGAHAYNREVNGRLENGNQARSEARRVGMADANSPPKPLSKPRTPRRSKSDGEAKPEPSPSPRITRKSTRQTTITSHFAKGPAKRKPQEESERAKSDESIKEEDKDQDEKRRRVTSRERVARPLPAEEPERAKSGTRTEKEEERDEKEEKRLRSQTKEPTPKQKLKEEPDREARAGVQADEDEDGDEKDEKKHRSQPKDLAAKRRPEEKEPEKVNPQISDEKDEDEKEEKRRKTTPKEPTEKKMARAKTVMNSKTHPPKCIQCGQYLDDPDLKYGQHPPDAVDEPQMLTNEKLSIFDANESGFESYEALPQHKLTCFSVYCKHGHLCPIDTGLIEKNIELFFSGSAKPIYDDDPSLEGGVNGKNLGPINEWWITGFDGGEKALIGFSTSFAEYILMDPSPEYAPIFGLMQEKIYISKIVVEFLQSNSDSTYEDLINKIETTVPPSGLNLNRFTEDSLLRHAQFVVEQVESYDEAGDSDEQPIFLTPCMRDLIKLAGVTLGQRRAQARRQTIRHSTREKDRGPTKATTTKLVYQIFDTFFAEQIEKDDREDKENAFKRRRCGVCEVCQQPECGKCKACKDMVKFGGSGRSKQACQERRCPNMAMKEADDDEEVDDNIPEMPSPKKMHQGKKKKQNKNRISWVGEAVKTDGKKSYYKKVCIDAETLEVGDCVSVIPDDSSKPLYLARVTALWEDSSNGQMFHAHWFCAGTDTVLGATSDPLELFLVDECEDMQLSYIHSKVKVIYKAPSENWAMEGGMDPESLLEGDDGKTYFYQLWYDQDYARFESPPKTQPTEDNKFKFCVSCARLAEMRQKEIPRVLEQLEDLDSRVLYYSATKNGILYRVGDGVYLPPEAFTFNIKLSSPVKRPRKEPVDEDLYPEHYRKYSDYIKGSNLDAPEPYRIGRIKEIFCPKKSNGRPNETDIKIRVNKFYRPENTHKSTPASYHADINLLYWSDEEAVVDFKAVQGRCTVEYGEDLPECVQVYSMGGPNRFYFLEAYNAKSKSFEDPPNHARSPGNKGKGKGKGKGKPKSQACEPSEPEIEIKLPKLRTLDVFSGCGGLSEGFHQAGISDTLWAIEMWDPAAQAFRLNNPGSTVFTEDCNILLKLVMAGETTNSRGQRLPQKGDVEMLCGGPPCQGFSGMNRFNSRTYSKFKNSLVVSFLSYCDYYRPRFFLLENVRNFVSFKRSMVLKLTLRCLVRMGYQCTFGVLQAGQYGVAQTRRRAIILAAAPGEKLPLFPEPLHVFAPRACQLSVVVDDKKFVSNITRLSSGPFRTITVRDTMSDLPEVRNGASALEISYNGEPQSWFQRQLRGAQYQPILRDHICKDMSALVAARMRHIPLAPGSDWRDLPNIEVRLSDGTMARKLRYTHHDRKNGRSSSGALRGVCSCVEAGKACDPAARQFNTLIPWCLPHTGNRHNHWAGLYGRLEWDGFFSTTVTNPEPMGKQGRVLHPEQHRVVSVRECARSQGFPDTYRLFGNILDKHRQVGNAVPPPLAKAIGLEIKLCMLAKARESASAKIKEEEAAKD

T1 sequence (P98170 whole entry): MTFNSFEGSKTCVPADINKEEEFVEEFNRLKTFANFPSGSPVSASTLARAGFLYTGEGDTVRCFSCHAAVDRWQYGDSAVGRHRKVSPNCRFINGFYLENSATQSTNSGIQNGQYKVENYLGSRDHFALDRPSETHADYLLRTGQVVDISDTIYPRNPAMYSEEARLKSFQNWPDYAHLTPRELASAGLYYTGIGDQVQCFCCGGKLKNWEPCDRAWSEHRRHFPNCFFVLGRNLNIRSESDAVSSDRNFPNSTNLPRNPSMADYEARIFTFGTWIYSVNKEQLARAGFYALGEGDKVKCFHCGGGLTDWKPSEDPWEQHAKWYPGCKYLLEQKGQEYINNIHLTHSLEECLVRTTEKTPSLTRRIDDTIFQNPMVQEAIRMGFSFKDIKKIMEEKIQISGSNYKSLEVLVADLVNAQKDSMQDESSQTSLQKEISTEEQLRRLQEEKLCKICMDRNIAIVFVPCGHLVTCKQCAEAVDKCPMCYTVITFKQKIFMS
Sequence of Cytochrome P450 3A4 (P08684 whole entry): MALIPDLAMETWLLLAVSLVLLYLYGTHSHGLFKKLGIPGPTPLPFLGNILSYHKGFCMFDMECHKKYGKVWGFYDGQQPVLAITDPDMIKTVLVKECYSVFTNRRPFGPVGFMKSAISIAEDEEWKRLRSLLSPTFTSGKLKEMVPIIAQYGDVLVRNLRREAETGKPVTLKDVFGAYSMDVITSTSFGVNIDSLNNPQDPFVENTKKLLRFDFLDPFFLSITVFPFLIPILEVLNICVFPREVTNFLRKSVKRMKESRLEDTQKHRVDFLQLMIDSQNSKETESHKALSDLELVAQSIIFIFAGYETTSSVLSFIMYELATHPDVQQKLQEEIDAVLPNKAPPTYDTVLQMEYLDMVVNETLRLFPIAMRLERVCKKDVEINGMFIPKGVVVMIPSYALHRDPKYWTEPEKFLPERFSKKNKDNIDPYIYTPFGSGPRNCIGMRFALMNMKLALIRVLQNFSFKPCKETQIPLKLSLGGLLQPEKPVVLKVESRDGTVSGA
Sequence of 72 kDa type IV collagenase (P08253 whole entry): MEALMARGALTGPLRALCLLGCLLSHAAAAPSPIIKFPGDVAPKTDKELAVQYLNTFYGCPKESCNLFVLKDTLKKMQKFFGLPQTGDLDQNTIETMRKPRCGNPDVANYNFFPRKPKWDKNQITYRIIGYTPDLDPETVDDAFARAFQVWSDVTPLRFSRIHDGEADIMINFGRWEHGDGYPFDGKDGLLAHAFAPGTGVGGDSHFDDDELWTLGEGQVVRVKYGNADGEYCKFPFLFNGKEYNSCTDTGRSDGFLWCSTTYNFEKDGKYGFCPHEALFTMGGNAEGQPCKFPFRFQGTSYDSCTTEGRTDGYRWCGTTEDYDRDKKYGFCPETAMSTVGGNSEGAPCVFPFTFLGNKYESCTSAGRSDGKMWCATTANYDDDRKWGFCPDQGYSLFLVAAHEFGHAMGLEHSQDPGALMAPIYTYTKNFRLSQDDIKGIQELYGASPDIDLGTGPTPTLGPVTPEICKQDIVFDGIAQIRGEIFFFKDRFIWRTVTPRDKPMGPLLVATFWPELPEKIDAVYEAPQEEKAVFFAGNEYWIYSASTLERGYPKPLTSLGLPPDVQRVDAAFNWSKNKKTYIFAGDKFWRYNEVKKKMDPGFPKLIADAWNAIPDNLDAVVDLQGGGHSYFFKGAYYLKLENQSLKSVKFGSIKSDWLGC
Sequence of 26S proteasome non-ATPase regulatory subunit 14 (O00487 whole entry): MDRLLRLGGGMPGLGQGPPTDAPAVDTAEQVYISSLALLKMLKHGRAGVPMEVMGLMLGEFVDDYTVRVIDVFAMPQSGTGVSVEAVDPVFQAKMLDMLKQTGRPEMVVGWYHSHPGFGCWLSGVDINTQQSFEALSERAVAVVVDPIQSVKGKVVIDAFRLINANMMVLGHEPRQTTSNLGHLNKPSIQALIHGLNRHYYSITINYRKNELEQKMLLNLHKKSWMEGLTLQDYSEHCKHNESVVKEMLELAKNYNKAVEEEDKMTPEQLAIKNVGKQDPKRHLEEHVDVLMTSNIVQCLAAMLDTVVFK
Sequence of Cytochrome P450 2D6 (P10635 whole entry): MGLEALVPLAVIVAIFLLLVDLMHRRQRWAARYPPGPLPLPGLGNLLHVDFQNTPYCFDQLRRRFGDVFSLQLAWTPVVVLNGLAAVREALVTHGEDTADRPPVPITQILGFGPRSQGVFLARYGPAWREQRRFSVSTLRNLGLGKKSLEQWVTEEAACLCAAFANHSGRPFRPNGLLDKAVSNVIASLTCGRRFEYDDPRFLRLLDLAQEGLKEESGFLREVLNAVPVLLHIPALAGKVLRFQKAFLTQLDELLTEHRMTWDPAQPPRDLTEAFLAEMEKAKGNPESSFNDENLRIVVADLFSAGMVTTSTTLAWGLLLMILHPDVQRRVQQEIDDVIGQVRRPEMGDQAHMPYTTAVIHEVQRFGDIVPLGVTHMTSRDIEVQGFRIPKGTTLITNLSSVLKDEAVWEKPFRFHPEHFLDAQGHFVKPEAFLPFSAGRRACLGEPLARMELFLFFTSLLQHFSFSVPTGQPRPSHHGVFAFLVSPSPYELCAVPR

COc1ccc(C(N)=NOC(=O)Cc2ccc(C)cc2)cc1
IC50 [1]: > 100 µM (inactive)
IC50 [2]: > 100 µM (not active)

CN1CCN(c2ccc(NC(=S)NC(=O)c3cccc4ccccc34)cc2)CC1
AC50 [3]: 9 µM (active)

CC(C)C(=O)Nc1ccc(C(=O)NCc2cccnc2)cc1
EC50 (BJ [4]): > 150 µM (not active)
EC50 (BJ [5]): 3.86 µM (active)
EC50 (BJ [6]): 19.4 µM (inconclusive)
EC50 [7]: > 150 µM (not active)
EC50 (BJ [8]): 18.9 µM (active)

CCOC(=O)NC(=O)/C(C#N)=C/c1ccc(N(C)C)cc1
IC50 [9]: 14.7 µM (active)
IC50 [10]: > 100 µM (inactive)
IC50 (Prothrombin): 25.6 µM (active)

C#CCN[C@@H](C)Cc1ccccc1
AC50 (Cytochrome P450 2D6): 25.1 µM (inconclusive)
AC50 (Cytochrome P450 1A2): 15.8 µM (inconclusive)
AC50 (Cytochrome P450 3A4): inconclusive

O=C(NCc1cccnc1)c1ccc(NC(=O)c2ccc([N+](=O)[O-])cc2)cc1
EC50 (BJ [4]): > 150 µM (not active)
EC50 (BJ [5]): 15.9 µM (inconclusive)
EC50 (BJ [6]): > 150 µM (not active)
EC50 [7]: > 150 µM (not active)
EC50 (BJ [8]): > 66.7 µM (inactive)
AC50 (INS1): < 0.195 µM (active)

C/C(=N\NC(=S)N1CC2CCC(CC2)C1)c1nccs1
GI50 (P388/ADR): < 0.01 µM (active)
GI50 (SN12K1): < 0.01 µM (active)
GI50 (P388): < 0.01 µM (active)

CCOC(=O)c1c(C)nc2c(c1-c1ccccc1)C(=O)CCC2
AC50 (Cytochrome P450 3A4): inconclusive

Cc1cc(C)cc(NC(=O)Nc2ccc3c(c2)N(C)C(=O)CS3)c1
IC50 [1]: > 100 µM (inactive)
IC50 [2]: > 100 µM (not active)

C=C(C)C(=O)Nc1cccc(C2=NOC3(C2)C[C@H](C(N)=O)N(C(=O)CC)C3)c1 (stereo partly drawn)
IC50 (Coagulation factor XII): > 50 µM (inactive)
IC50 [11]: 4.32 µM (active)
